“Also recorded” adds a separate entry of the source.

Here are results for one compound from US11179358B2, “Compound for use in the prevention and treatment of neurodegenerative diseases” (Universität Wien, priority 2015, dated 2021).

Series [1] concerns transgenic (tg) animals Line 61. The series is described as follows: Pasta Gnawing Test. It counts as in vivo, mice. On the procedure:
FIG. 13: Pasta Gnawing. The Pasta Gnawing Test is a stress-free behavioral experiment for evaluation of motor deficits in rodents. During the test, the gnawing noises of the animals while eating a piece of dry pasta are recorded. Parameters such as biting speed and number of bites/chewing episode are evaluated.
Data are shown as mean±SEM. Statistics 1-Way-Anova. Statistically significant group differences are indicated with asterisks (for One Way Anova) and hashtag (for t-test); *p<0.05; **p<0.01; #p<0.05.

For series [2], the system named is RA/PMA differentiated SH-SY5Y cells. The series is described as follows: Sulfocalixarene protection against MPP+ and H2O2 cytotoxicity. The series is classed as cell-based, human. Particulars: Sulfocalixarene 500 μM and 100 μM. On the procedure: (§1) FIG. 11: Sulfocalixarene protection against Lcn2/NGAL cytotoxicity. A. SH-SY5Y RA/PMA differentiated cells were treated for 24 and 48 hours with two lethal concentrations of Lcn2/NGAL (100 μg/ml and 200 μg/ml). Cells were challenged with increasing concentration of Sulfocalixarene and assessed for MTT and phase contrast microscopy analyses. B. SH-SY5Y RA/PMA differentiated cells were treated for 24 and 48 hours with two lethal concentrations of MPP+ (0.5 mM and 10 mM). Cells were challenged with increasing concentration of Sulfocalixarene and assessed for MTT and phase contrast microscopy analyses.
FIG. 12: Sulfocalixarene protection against MPP+ and H2O2 cytotoxicity. Representative phase-contrast microscope images of RA/PMA differentiated SH-SY5Y cells, scale bar 100 μm.
Furthermore, it was shown that Sulfocalixarene protected against MPP+ (a substrate for the dopamine transporter that is taken up selectively into dopaminergic neurons where it inhibits Complex I of the mitochondrial electron transport chain) and H2O2 stress in human differentiated SH-SY5Y cells. Oxidative stress and mitochondrial damage have been implicated in the pathogenesis of several neurodegenerative diseases.

The target of a further series is Lcn2 (Homo sapiens, UniProt P80188). The series is described as follows: Isothermal titration calorimetry of Sulfocalixarene binding to Lcn2. The conditions noted are these: ITC, 25° C., 20 mM Tris pH 7.4, 50 mM NaCl, single binding site. The procedure: Isothermal Titration Calorimetry (ITC)—Binding of free and bound Sulfocalixarene to Lcn2 was determined by ITC using a Microcal ITC200 microcalorimeter. Experiments were carried out at 25° C. in 20 mM Tris pH 7.4, 50 mM NaCl. The reference cell contained Milli Q water. The concentration of Lcn2 in the reaction cell was 50 μM. The concentration of Sulfocalixarene in the syringe was 500 μM. The titration consisted in 19 successive injections of 4 μL, with a stirring speed of 800 rpm, separated by intervals of 300 s. Data analysis was done with the Origin software assuming a single binding site.
Sequence of Lcn2 (P80188 21-198): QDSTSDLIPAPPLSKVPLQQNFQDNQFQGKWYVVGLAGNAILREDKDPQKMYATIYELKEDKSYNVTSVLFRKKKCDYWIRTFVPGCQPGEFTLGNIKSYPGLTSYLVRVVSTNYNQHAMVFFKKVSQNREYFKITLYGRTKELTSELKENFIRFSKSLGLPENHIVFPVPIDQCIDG
FIG. 7 illustrates a biophysical characterization of the Sulfocalixarene binding to soluble Lcn2. (top). Overlay of ^1H-^15N HSQC spectra for Lcn2 without (red) and with Sulfocalixarene (blue). Changes of cross peak frequencies (positions) indicate residues which are affected upon binding. (bottom) Isothermal titration calorimetry traces of Sulfocalixarene binding to Lcn2. Sulfocalixarene binds to Lcn2 with a KD of about 700 nM.
Background: Isothermal titration calorimetry measures the heat released or taken up as one component is titrated into another.

The next series concerns the target α-synuclein (Homo sapiens, UniProt P37840). The series is described as follows: NMR probing of interaction between α-synuclein and Sulfocalixarene, with and without POPG liposomes. The series is classed as binding. The procedure: POPG was ordered from Avantis Polar Lipids as a stock of 5 mg/ml dissolved in chloroform. The stock solution was aliquotted in glass vials, most chloroform was evaporated under nitrogen flow and the sample was then dried under vacuum for a minimum of 45 min. POPG was dissolved in the desired buffer to 1 mg/ml, kept at RT for 1 hr and subjected to 3 freeze-thaw cycles for complete solvation. The suspension was sonicated in a bath sonicator for 5 min and cycled through an extruder (Avanti® mini-Extruder) equipped with a 0.4 μm membrane for 20 times.
To allow for high concentration measurements, the resulting solution was centrifuged at 200,000×g for 10 min, 75% of the supernatant were discarded and the pellet was resuspended in the remaining 25% yielding a solution of 4 mg/ml POPG. This solution was frozen in aliquots before being used in further measurements. […]
For all NMR-measurements the protein was dialyzed into 20 mM phosphate, pH=7.4, 100 mM NaCl. […] NMR-Spectra were recorded on Varian Direct Drive 600 MHz and Varian Inova 800 MHz spectrometers with 10% D2O as lock solvent. […] Resonance assignment at near physiological conditions was readily available from a previous publication (J. N. Rao, Y. E. Kim, L. S. Park, T. S. Ulmer, Effect of pseudorepeat rearrangement on alpha-synuclein misfolding, vesicle binding, and micelle binding. J Mol Biol 390, 516-529 (2009)) (BMRB ID 16300). […]

Series [3] relates to RA/PMA differentiated SH-SY5Y cells. The series is described as follows: Sulfocalixarene protection against Lcn2/NGAL cytotoxicity. The series is classed as cell-based. Particulars: human differentiated SH-SY5Y neuroblastoma cells. The procedure: as §1
To further study the effect of the compound in neuronal cellular cultures, a cytotoxicity assay was developed using the human Neuroblastoma SH-SY5Y cell line as an in vitro model for dopaminergic neurons. First, it was shown that RA-PMA terminally differentiated SH-SY5Y cells are sensitive to Lcn2/NGAL cytotoxicity in a dose dependent manner. Moreover, in the presence of reactive oxygen species (ROS) triggered by H2O2 the Lcn2/NGAL cytotoxicity is stronger. Second, it could be shown that SH-SY5Y terminally differentiated cells express ˜5× more the Lcn2/NGAL cognate receptor (SLC22A17) on the plasma membrane.

Series [4] relates to transgenic animal models for Parkinson Disease (PD). The experiment in a line: Immunostaining of cortex in transgenic animal models for Parkinson Disease and healthy controls. It counts as in vivo, mice. An excerpt:
FIG. 3: Quantification of the neuronal-immunostaining experiments. Total area, average size and % area are different computational strategies to quantify the number of neurons (however, leading to the same results).
FIG. 4: Immunostaining of astrocytes in healthy (control) and transgenic animals (PD). […] The numbers given for the transgenic animal models are average numbers (and standard deviation) of astrocytes obtained for different animals and cortex regions.
FIG. 6: Quantification of α-synuclein aggregates.

As usually defined, the Kd is the free concentration of one partner at which half of the binding sites on the other are occupied at equilibrium, for simple one-to-one binding. Turning to `O=S(=O)(O)c1cc2c(O)c(c1)Cc1cc(S(=O)(=O)O)cc(c1O)Cc1cc(S(=O)(=O)O)cc(c1O)Cc1cc(S(=O)(=O)O)cc(c1O)C2` [Sulfocalixarene, 4-sulfocalix[4]arene], the bites per episode result in series [1] (day 28, tg Line 61, versus tg animals treated with vehicle) is recorded as “significant more bites per episode”. For the same compound, the biting speed entry in series [1] (tg Line 61, versus tg animals treated with vehicle) was “more biting speed”. Also, the “cell viability reduction induced by H2O2” value in series [2] is on record as “attenuates the reduction of cell viability”. Besides, the “cell viability reduction induced by MPP+” value in series [2] is listed as “attenuates the reduction of cell viability”. The same compound showed an equilibrium dissociation constant (Kd) at Lcn2 of approximately 700 nM. In addition, the “location of binding site on α-synuclein (NMR chemical shift changes)” value on α-synuclein (monomeric (soluble) α-Synuclein) was “N-terminal domain of α-synuclein; also recorded: N-terminal part of α-Synuclein; also recorded: N-terminal domain (1-40)”. For the same compound, the “release of α-syn from POPG liposomes (NMR signal intensity ratio)” value on α-synuclein (α-syn (120 µM) with POPG-liposomes (0.8 mg/ml)) is “partly releases α-syn from the liposomes”. Also, in series [3], the “neuroprotection against Lcn2/NGAL cytotoxicity” value was “has neuroprotection properties against the cytotoxic protein Lcn2/NGAL”. Also, the number of astrocytes entry in series [4] (healthy control animals) is on record as “unaffected”; in series [4] (transgenic animals (PD), cortex) it was “increase of the number of (presumably neurotrophic quiescent) astrocytes”. In addition, the “number of neurons in the cortex” value in series [4] (transgenic animal models for PD) is listed as “increase of the number of neurons in the cortex”. Moreover, the “pathological α-synuclein aggregates” value in series [4] (transgenic animals (PD)) was “reduction of pathological α-synuclein aggregates; also recorded: significant reduction of α-synuclein aggregates”.
